What was measured:
[1] = system: ligand-dependent transcription factors (AhR, ER, and AR); assay: Reporter gene (luciferase) assay in Neuro2a cells carrying PGV-THp03 (SEQ ID No: 2); type: cell-based, mouse; conditions: 10 nM, 30 hours, PGV-THp03, AhR-introduced Neuro2a
Procedure: A vector (PGV-THp03) containing the upstream region (SEQ ID No: 2) ranging from about −300 to 0 position of the TH gene-coding region, which was prepared in Example 4, was used. Neuro2a was used as the cell.
Two kinds of vectors, pcDNA4-rAhR (Example 1) and pcDNA4/V5-His/lacZ (Invitrogen), were introduced into Neuro2a, together with PGV-THp03. pcDNA4-rAhR was introduced for constitutive expression of the SD-line rat AhR gene (SEQ ID No: 10) in the cell, and pcDNA4/V5-His/lacZ was introduced for normalization of the vector transfection efficiency.
The vectors were introduced into the cell by using LIPOFECTAMINE 2000 (Invitrogen). The cell was cultured on a 24-well plate, and the operation was performed according to the manual of Invitrogen. A total of […] of vectors (0.4 μg of PGV-THp03, 0.2 μg of pcDNA4-rAhR, and 0.2 μg of pcDNA4/V5-His/lacZ) suspended in 50 μl of OPTI-MEM medium and 2 μl of LIPOFECTAMINE 2000 suspended in 50 μl of OPTI-MEM medium were mixed, and incubated at room temperature for 20 minutes to form nucleic acid/LIPOFECTAMINE 2000 complex. The obtained suspension containing the complex was added to Neuro2a cell culture, which has been previously cultured overnight in 500 μl of DF1:1 medium (containing 10% fetal calf serum) (0.8×10^5 cells were seeded on previous day), to allow incorporation of the vectors into the cell. The cell was cultured additionally for 24 hours after transfection, for the purpose of improvement in vector incorporation efficiency and expression of the protein derived from the introduced vectors.
As the test substances, vinclozolin (10 μM), dimethyl phthalate (10 μM), benzopyrene (1 μM), and dioxin (TCDD) (10 nM) were used. After the transfection and the additional incubation for 24 hours, the medium was replaced with a fresh medium containing any one of the test substances, and the cell was cultured additionally for 30 hours. After 30 hours, the medium was removed from the 24-well plate, and the cell was washed with phosphate buffer twice. 100 μl of a protein extraction solution (manufactured by TOYO B-NET) was added to each well, and the cell suspension was stirred gently at room temperature for 15 minutes and then frozen at −80° C. The frozen solution was thawed at room temperature, and the resulting solution was recovered in a tube and diluted ten times with a protein extraction reagent containing 1 mg/ml bovine serum albumin luciferase and β-galactosidase activities in the diluted solution were measured, and the expression amount of the reporter gene was calculated as a relative luminescence intensity per 1 ng of β-galactosidase per second (RLU/sec/ng β-galactosidase).

[2] = target: T1, aryl hydrocarbon receptor (Rattus norvegicus, UniProt P41738, Q794H); assay: Reporter gene assay in Neuro2a with pSV40E100/Luc and pTHE100/Luc (SEQ ID No: 3); type: cell-based, SD-line rat; conditions: 10 nM TCDD; pTHE100/Luc compared with pSV40E100/Luc
T1 construct: The SD-line rat AhR gene-coding region was amplified from the reverse-transcribed sample by means of PCR; V5-His (C-terminal tag of vector pcDNA4/V5-His B); expressed in transfected cells; host or cells: mouse neuroblastoma Neuro2a, transient transfection with LIPOFECTAMINE 2000
T1 sequence (P41738 10-853 Q794H): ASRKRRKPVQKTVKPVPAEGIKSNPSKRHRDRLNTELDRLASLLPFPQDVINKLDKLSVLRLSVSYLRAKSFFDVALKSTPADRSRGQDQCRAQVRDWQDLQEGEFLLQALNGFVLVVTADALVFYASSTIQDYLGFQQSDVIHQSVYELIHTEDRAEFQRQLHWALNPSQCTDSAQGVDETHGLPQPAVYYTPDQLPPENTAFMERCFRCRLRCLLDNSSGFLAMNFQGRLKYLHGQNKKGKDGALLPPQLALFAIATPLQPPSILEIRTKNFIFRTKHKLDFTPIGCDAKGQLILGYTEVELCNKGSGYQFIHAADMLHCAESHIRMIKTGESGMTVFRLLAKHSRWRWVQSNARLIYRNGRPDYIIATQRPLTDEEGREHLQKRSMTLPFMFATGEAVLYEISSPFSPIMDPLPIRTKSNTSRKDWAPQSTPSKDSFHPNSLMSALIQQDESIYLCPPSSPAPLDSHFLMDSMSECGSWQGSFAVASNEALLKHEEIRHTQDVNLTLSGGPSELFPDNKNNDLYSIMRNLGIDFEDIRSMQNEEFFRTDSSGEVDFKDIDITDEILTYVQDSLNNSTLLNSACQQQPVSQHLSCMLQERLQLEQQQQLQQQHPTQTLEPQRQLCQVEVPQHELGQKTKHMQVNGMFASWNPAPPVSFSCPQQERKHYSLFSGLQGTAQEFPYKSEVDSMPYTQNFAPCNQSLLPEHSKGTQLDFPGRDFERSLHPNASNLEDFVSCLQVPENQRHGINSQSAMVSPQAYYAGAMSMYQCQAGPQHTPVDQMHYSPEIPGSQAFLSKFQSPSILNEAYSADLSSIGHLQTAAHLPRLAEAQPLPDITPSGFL
Procedure: The TH transcriptional regulatory region of SEQ ID No: 3 (−300 to −200 bp) was used in Example 6. The TH transcriptional regulatory region ranging from −300 to −200 position was prepared by PCR using the 500-bp size of TH transcriptional regulatory region as a template. The following primers were used.
Recognition sequences for restriction enzymes KpnI (for forward primer) and NheI (for reverse primer) were added to the terminal of the respective primers, for the purpose of facilitating incorporation of the PCR amplified fragment into the vector. The region of SEQ ID No: 3 was amplified by using Pyrobest DNA polymerase. The amplified DNA fragment was digested with restriction enzymes KpnI and NheI, and subjected to electrophoresis on agarose. The corresponding band was purified with a QIAQUICK Gel Extraction Kit, and incorporated into PGV-P2 vector previously digested with KpnI and NheI, to obtain a recombinant vector pSV40E100/Luc. The vector PGV-P2 used contains an SV40 early promoter as its promoter region.
In addition, the region of SEQ ID No: 5 (mouse TH gene core promoter region) was amplified by PCR using a forward primer: 5′-[…]-3′ (SEQ ID No: 27) and a reverse primer: 5′-[…]-3′ (SEQ ID No: 28), and using a region of approximately 500 by upstream of the TH gene as the template. […]

Clc1cc2c(cc1Cl)Oc1cc(Cl)c(Cl)cc1O2 [TCDD, 2,3,7,8-tetrachlorodibenzo-p-dioxine]
luciferase activity increase [1]: approximately 1.4 times | activity in response to test substance, TH gene core promoter versus SV40 early promoter [2]: higher activity in response to a test substance

From US7811760B2, “Vector and method for detecting the change in transcription amount” (priority 2006, dated 2010)
